Data set [1] in a line: Determination of log P values by HPLC on reversed-phase column (formic acid method). The class given is physicochemical. To be noted: reversed-phase HPLC column (C 18), pH 3.4, HPLC, reversed-phase C 18, acidic range (pH 3.4), formic acid eluents, 55° C.; read-out: logP (HCOOH). The essentials:
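Reversed-phase C18 HPLC per EEC Directive 79/831 Annex V.A8, pH 3.4, acetonitrile/water with formic acid, gradient 10% to 95% acetonitrile in 4.25 min. log P obtained from retention times by linear interpolation between successive unbranched alkan-2-ones (C3–C16) of known log P.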

Data set [2] concerns green peach aphid (Myzus persicae). Briefly: Myzus test. The class given is in vivo. To be noted: application rate 500 g/ha, spray on Chinese cabbage leaf slices, read-out: efficacy (aphids killed). Summed up: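 Active ingredient formulated in acetone/dimethylformamide with alkylaryl polyglycol ether emulsifier, diluted in emulsifier-containing water. Sprayed onto Chinese cabbage leaf discs carrying all aphid stages; % efficacy scored after set time (100% = all aphids dead).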

Take `Cc1nc(CN(C)C(=O)c2cnc(-c3cccnc3)s2)c(C)o1` [Compound 166]: the chromatographic logP in data set [1] worked out at 1.44. Moreover, the pest or weed control at 500 g/ha in data set [2] was no less than 70%.
For `Cc1nc(-c2cccnc2)sc1C(=O)N(Cc1ccco1)CC(F)(F)F` [Compound 131], in that order: 2.56 and no less than 70%.
As to `Cc1nc(-c2cccnc2)sc1C(=O)NCc1ncccn1` [Compound 40], in data set [1], the chromatographic logP amounted to 1.05. Also, the pest or weed control at 500 g/ha in data set [2] is no less than 70%.
For `Cc1nc(-c2cccnc2)sc1C(=O)N(CCCF)CC(F)(F)F` [Compound 124], in that order: 2.11 and no less than 70%.
`Cc1nc(-c2cccnc2)sc1C(=O)N(C)C(C)c1ccccn1` (stereo not shown) [Compound 111]: the chromatographic logP in data set [1] amounted to 1.45. Also, the pest or weed control at 500 g/ha in data set [2] was no less than 70%.
For `CCC(=O)N(CC#N)C(=O)c1cnc(-c2cccnc2)s1` [Compound 190], in that order: 1.77 and no less than 70%.
On to `COCN(CC(F)(F)F)C(=O)c1sc(-c2cccnc2)nc1C` [Compound 69], for which the chromatographic logP in data set [1] came out at 2.06. Moreover, the pest or weed control at 500 g/ha in data set [2] is no less than 70%.
For `Cc1nc(-c2cccnc2)sc1C(=O)N(CC#N)C(C)C` [Compound 142], in that order: 1.56 and no less than 70%.
The corresponding values for `Cc1nc(-c2cccnc2)sc1C(=O)NC(C(C)C)C(F)(F)F` (stereo not shown) [Compound 146] are 2.48 and no less than 70%.
With `Cc1nc(-c2cccnc2)sc1C(=O)NC1(C(F)(F)F)CC1` [Compound 34], the chromatographic logP in data set [1] came to 1.84. For the same compound, the pest or weed control at 500 g/ha in data set [2] is no less than 70%.
The corresponding values for `Cc1nc(-c2cccnc2)sc1C(=O)NCC(F)(F)C(F)F` [Compound 82] are 1.75 and no less than 70%.
For `COCN(Cc1cc(C)on1)C(=O)c1sc(-c2cccnc2)nc1C` [Compound 119], in that order: 1.71 and no less than 70%.
The corresponding values for `Cc1nc(-c2cccnc2)sc1C(=O)NC(C)c1nn(C)c(=O)n1C` (stereo not shown) [Compound 151] are 1.01 and no less than 70%.
As for `COC1(NC(=O)c2sc(-c3cccnc3)nc2C)CC1` [Compound 129], in data set [1], the chromatographic logP stood at 1.23. In addition, the pest or weed control at 500 g/ha in data set [2] is no less than 70%.
The corresponding values for `CCNC(=O)c1cnc(-c2cccnc2)s1` [Compound 55] are 1.03 and no less than 70%.
The corresponding values for `Cc1nc(-c2cccnc2)sc1C(=O)N(C)CC(C)(F)F` [Compound 35] are 1.65 and no less than 70%.
`Cc1nc(-c2cccnc2)sc1C(=O)NCC(C)(F)F` [Compound 36]: in data set [1], the chromatographic logP was 1.59. Further, the pest or weed control at 500 g/ha in data set [2] was no less than 70%.
For the compound `Cc1nc(-c2cncnc2)sc1C(=O)N(C)CC(F)(F)F` [Compound 21], the chromatographic logP in data set [1] amounted to 1.72. For the same compound, in data set [2], the pest or weed control at 500 g/ha was no less than 70%.
For `Cc1nc(-c2cccnc2)sc1C(=O)N(C)Cc1ccccn1` [Compound 93], in that order: 1.19 and no less than 70%.
For `Cc1nc(C)n(C(C)CNC(=O)c2sc(-c3cccnc3)nc2C)n1` (stereo not shown) [Compound 165], in that order: 1.06 and no less than 70%.
For `Cn1nc(-c2cncc(F)c2)cc1C(=O)NCc1ncccn1` [Compound 11], in that order: 1.24 and no less than 70%.
As for `C#CC(C)ONC(=O)c1sc(-c2cccnc2)nc1C` (stereo not shown) [Compound 158], the chromatographic logP in data set [1] stood at 1.48. Moreover, the pest or weed control at 500 g/ha in data set [2] was no less than 70%.
The corresponding values for `Cc1nc(-c2cccnc2)sc1C(=O)NCC1COCCO1` (stereo not shown) [Compound 50] are 0.8 and no less than 70%.

These data come from patent publication US9428487B2, “Heteroaromatic amides and thioamides as pesticides” (Bayer Intellectual Property GmbH, priority 2008, dated 2016).
